Assay results taken from US20090203658A1, “NEUROACTIVE STEROID COMPOSITIONS AND METHODS OF USE THEREFOR” (Duke University, priority 2007, published 2009).
Marks after values point to notes of the source that are not given here.

Assays:
healthy male smokers = experiment: Pilot study of one-time DHEA or PG after overnight abstinence from cigarettes: craving measures; assay type: in vivo, human; settings: one-time 400 mg; vs. placebo
Procedure: Elaborating, a pilot study is provided herein, which involves administering one-time DHEA (400 mg), PG (400 mg) or placebo to healthy male smokers following overnight abstinence from cigarettes. […] Thus, neuroactive steroids can be candidate therapeutic molecules for smoking cessation.

[1] = DHEA administration in humans (50 mg); cited from earlier work
brain = settings: in vivo; cited from earlier work
[2] = single dose of PG 175 mg; over the course of 5-8 hours; cited from earlier work
[3] = tested on: subjects with schizophrenia or schizoaffective disorder
[4] = tested on: subjects with schizophrenia or schizoaffective disorder; experiment: Randomized placebo-controlled double-blind trial of adjunctive PG: negative and cognitive symptoms (SANS, BACS, MATRICS); assay type: in vivo, human
Text: Of 21 subjects randomized, 18 completed at least four weeks of treatment (n=9 per group). […] Increases in serum PG levels were positively correlated with cognitive improvement in the PG group, predicting both BACS (r=0.79, n=9, p=0.02; see FIG. 3A) and MATRICS (r=0.70, n=9, p=0.05; see FIG. 3B) composite scores at eight weeks. The mean BACS z-score increase for the PG group was 0.60 (vs. 0.22 for the placebo group). BACS and MATRICS assessments were correlated (r=0.74, p<0.0001).

rat frontal cortex = experiment: Neuroactive steroid levels in frontal cortex after chronic lithium or valproate (GC/MS preceded by HPLC); assay type: in vivo, Male Wistar Kyoto rats; settings: chronic administration four weeks, n=9
Procedure: Lithium and Valproate Administration.
NS analyses in rat and mouse frontal cortex were performed as described in Marx et al., 2006a; Marx et al., 2006b; and Marx et al., 2006c. Rodent brain tissue was homogenized in 5 volumes of distilled water containing about 2200 cpm (4400 dpm/injection) of tritiated NS (Perkin Elmer, Waltham, Mass.) to detect the HPLC fraction containing the NS of interest. Deuterated ALLO (D4-ALLO, 400 pg) and deuterated PG (D4-PG, 400 pg) were used as internal standards. Supernatants were extracted three times with three volumes of ethyl acetate and dried under nitrogen prior to HPLC purification. […] The limit of NS detection with this method was 2 pg for ALLO and 10 pg for PG. Mean intra-assay coefficients of variation were 3.9% for ALLO and 3.0% for PG.
Statistical Analysis. For rat experiments utilizing chronic lithium and valproate administration, data were analyzed by ANOVA with post-hoc Dunnett tests. Data from Bcl-2 knockout mouse experiments were analyzed by unpaired t-tests.
To that end, NS levels (ALLO and PG) were determined in frontal cortex by negative ion chemical ionization gas chromatography/mass spectrometry in male Wistar Kyoto rats treated chronically with lithium, valproate, or vehicle. NS were also investigated in heterozygous Bcl-2 knockout mice.

[5] = Serum drug levels after chronic lithium or valproate in chow; settings: chow 1.2 then 2.4 g Li2CO3/kg, four weeks; measured by atomic absorption
Text: Lithium and Valproate Administration. […] Animals were fed with control rodent chow or chow containing a low dose of lithium (1.2 g Li2CO3/kg) or valproate (10 g/kg) for one week to allow the animals to slowly acclimate to the drug, and were then fed with chow containing a full dose of lithium (2.4 g Li2CO3/kg) or valproate (20 g/kg) for three weeks. On the last day of the treatment, animals were sacrificed, and trunk blood was collected to measure lithium and valproate levels in the serum.

[6] = change from baseline (Hillside AE Form), n = 9
[7] = change from baseline (Hillside AE Form), n = 9, mild in all subjects

In the case of C[C@]12CC[C@H](O)CC1=CC[C@@H]1[C@@H]2CC[C@]2(C)C(=O)CC[C@@H]12 [DHEA, dehydroepiandrosterone], the “craving measures following overnight smoking cessation” value (healthy male smokers) is given as “attenuates craving measures” and the “increase of ALLO” value [1] is given as “three-fold”.

In the case of CNCCC(Oc1ccc(C(F)(F)F)cc1)c1ccccc1 (stereo not shown) [Fluoxetine], the “effect on brain ALLO levels and PG levels” value (brain) is listed as “elevates”.

In the case of CC(=O)[C@H]1CC[C@H]2[C@@H]3CC=C4C[C@@H](O)CC[C@]4(C)[C@H]3CC[C@]12C [PG, pregnenolone], the “increase in serum ALLO levels after PG administration” value (eight weeks of PG vs. baseline, schizophrenia subjects) is reported as “over 5 fold”, the “PGS levels after PG administration” value (subjects with schizophrenia, baseline vs. 10 weeks) is reported as “significantly increased” and the “craving measures following overnight smoking cessation” value (healthy male smokers) is reported as “attenuates craving measures”. The “change of serum PG levels” value [2] was “approximately doubled”, the “AIMS, Barnes Akathisia Scale, Simpson-Angus Scale, blood pressure, pulse, or weight” value ([3]; PG administration) was “did not result in a significant change” and the tolerability ([3]; PG group, n=9) was “well-tolerated”. The “glucose level, average post-treatment” value ([3]; average baseline 117.9 mg/dl) was 119.0 mg/dL, the “cholesterol, average post-treatment” value ([3]; average baseline 185.8 mg/dl) was 164.6 mg/dL and the “QTc intervals on EKG” value ([3]; baseline (visit 1) vs. week 10 (visit 6)) was “did not negatively impact”. The Akathisia [3, 6] was 0 N (%), the “All Other Side Effects” value [3, 6] was 0 N (%) and the “Blurred Vision” value [3, 6] was 0 N (%). The Diarrhea [3, 6] was 0 N (%), the Drowsiness [3, 6] was 0 N (%) and the Excitation/Agitation [3, 6] was 0 N (%). For the same molecule, the Headache [3, 6] was 0 N (%), the “Impaired Sexual Performance” value [3, 6] was 0 N (%) and the Insomnia [3, 6] was 0 N (%). The “Joint Pain/Stiffness” value [3, 6] was 0 N (%), the Malaise [3, 6] was 0 N (%) and the “Nasal Congestion” value [3, 6] was 0 N (%). The “Peripheral Edema” value [3, 6] was 0 N (%), the Rigidity [3, 6] was 0 N (%) and the Sweating [3, 6] was 0 N (%). The Tremor [3, 6] was 0 N (%), the Hypertension ([3]; change from baseline (Hillside AE Form), n = 9, mild (<145/90)) was 1 (11%)^b N (%) and the “Cold Extremities” value [3, 7] was 1 (11%)^a N (%). For the same molecule, the “Decreased Interest in Sex” value [3, 7] was 1 (11%)^a N (%), the Dry mouth [3, 7] was 1 (11%)^a N (%) and the “Muscle Pain/Stiffness” value [3, 7] was 1 (11%)^a N (%). For the same molecule, the Restlessness [3, 7] was 2 (22%)^a N (%), the “Disorientation (to date, address, mayor, or MD name)” value ([3]; change from baseline pre-randomization (Hillside AE Form), n = 9, mild in all subjects) was 2 (22%)^a N (%) and the “mean change in SANS scores (improvement)” value ([4]; PG 50 to 250 mg BID for 8 weeks added to second generation antipsychotics, n=9, placebo 2.33, p=0.05) was 10.38. The “mean BACS z-score increase” value ([4]; PG group, placebo group 0.22) was 0.60.

For [Li] [lithium], the “mean ALLO levels in rat frontal cortex” value (rat frontal cortex; 0.75 SEM, vehicle 0.71 ng/g, post-hoc Dunnett p<0.05) was 2.42 ng/g, the “mean PG levels in rat frontal cortex” value (rat frontal cortex; ±2.95 SEM, vehicle 3.37 ng/g, post-hoc Dunnett p=0.09) was 8.19 ng/g and the serum lithium level [5] was 0.74 ±0.31 mEq/l.
